Reference: patent US20120252723A1, “Regulating the Amino Acid Pool Used for the Acute-Phase Protein Synthesis” (N.V. Nutricia, priority 2009, published 2012)
“Also recorded” adds a separate entry of the source.

Assays:
HepG2 cells [1] = assay: Fibrinogen secretion by HepG2 cells (ELISA of media); assay type: cell-based, human; conditions: for fibrinogen secretion in media in which one amino acid was omitted: named amino acid omitted, isonitrogenously compensated with the other amino acids; for inhibition of IL-6 induced fibrinogen secretion: IL-1β 10 ng/ml, insulin 1 μM
Experimental: (§1) The effects of either the amino acid concentration or the amino acid composition on the acute-phase protein response in a human hepatocellular cell line (HepG2 cell) were studied. As model components, the production of fibrinogen and albumin were studied.
(§2) Cell culture: Human hepatoma HepG2 cells (ATCC HB-8065) were maintained in DMEM supplemented with 10% heat inactivated fetal calf serum (Life Technologies) with 2 mM glutamine and streptomycin/penicillin in Costar T75 flasks at 37° C. in a humidified atmosphere of 95% air-5% CO2. For experiments HepG2 cells were incubated in RPMI-1640 media without fetal calf serum. All experiments were carried out in 6 wells plates.
(§3) Incubations: HepG2 cells were grown in 6 wells plates to confluence, washed with DMEM ([…]) and subsequently incubated during 24-h with IL-6 and the custom media (RPMI-1640; RPMI-1640 select amino kit Gibco BRL). After the incubations, the media were collected and stored at −20° C. until analysis. The cells were then washed with phosphate-buffered saline (PBS) and lysed with 0.1M NaOH. The protein content was determined using the Bio-Rad Protein assay (Dye Reagent Concentrate, Bio-Rad Laboratories, Inc., Hercules Calif., USA) using bovine albumin (Sigma Aldrich) as standard. The data are presented as μg acute-phase protein in the supernatant per milligram protein cell content.
(§4) Antibodies: Rabbit anti-human fibrinogen and horseradish peroxidase (HRP)—conjugated rabbit anti-human fibrinogen were obtained from DakoCytomation (Denmark A/S, Glostrup, Denmark), anti-human albumin, HRP-conjugated anti-human albumin were obtained from Dade Behring B.V. (Leusden, the Netherlands).
(§5) ELISAs: Albumin and fibrinogen: 96-well flat-bottom Costar EIA/RIA plates were coated overnight with primary antibody in PBS at predetermined optimal concentration. After each incubation step, the plates were washed with 0.1% Tween-20 (Merck Eurolab B.V., Roden, the Netherlands) in PBS. After washing, the plates were blocked with 5% Protifar (Nutricia B.V., Zoetermeer, the Netherlands) in PBS during 90 min. Subsequently, the samples and antigen were incubated in 0.1% Tween-20 in PBS during 90 min. Next, the plates were incubated with HRP-conjugated antibodies in 0.1% Tween-20 in PBS during 90 min. The colorimetric reaction was carried out with undiluted 1-Step Ultra TMB-ELISA (Pierce, Rockland, Ill., USA). The reaction was stopped with 2 M sulphuric acid. The absorbances of the samples were measured at λ=450 nm.

HepG2 cells [2] = assay: Albumin secretion by HepG2 cells (ELISA of media); assay type: cell-based, human; conditions: for albumin secretion in media in which one amino acid was omitted: named amino acid omitted, isonitrogenously compensated with the other amino acids
Experimental: as §1, §2, §3, §4, §5

[3] = added in combination with IL-6 10 ng/ml, n=6

Compound	fibrinogen secretion in media in which one amino acid was omitted (HepG2 cells [1])	albumin secretion in media in which one amino acid was omitted (HepG2 cells [2])	also measured
N=C(N)NCCC[C@H](N)C(=O)O [Arg, arginine]	significantly decreased; also recorded: significantly inhibited	significantly decreased; also recorded: significantly inhibited	
N[C@@H](CO)C(=O)O [Ser, serine]	significantly decreased; also recorded: significantly inhibited	significantly decreased; also recorded: significantly inhibited	
N[C@@H](CS)C(=O)O [cysteine]	significantly decreased; also recorded: significantly inhibited	significantly decreased; also recorded: significantly inhibited	
C[C@@H]1C[C@H]2[C@@H]3CCC4=CC(=O)C=C[C@]4(C)[C@@]3(F)[C@@H](O)C[C@]2(C)[C@@]1(O)C(=O)CO [dexamethasone, reference compound]			enhancing effect on IL-6 induced fibrinogen secretion (HepG2 cells [1]; added in combination with IL-6 10 ng/ml, dexamethasone 1 μM, n=6): 20%
IL-1β: cytokine, used at 10 ng/ml [reference compound]			inhibition of IL-6 induced fibrinogen secretion (HepG2 cells [1]; [3]): approximately 25%
IL-6: Human IL-6 obtained from Sigma Aldrich [reference compound]			fibrinogen secretion (excretion) from HepG2 cells (HepG2 cells [1]; incubation with IL-6, range 1-10 ng/ml, 24-h, n=6): concentration-dependent relationship; also recorded: significantly induces; albumin secretion (excretion) from HepG2 cells (HepG2 cells [2]; incubation with IL-6 or other cytokines/hormones, 24-h, n=6): no significant effects; also recorded: no effect
insulin [reference compound]			inhibition of IL-6 induced fibrinogen secretion (HepG2 cells [1]; [3]): 50%
